Source: patent publication US20250268906A1, “MOLECULAR GLUE COMPOUND BASED ON CEREBLON PROTEIN DESIGN AND USE THEREOF” (GLUETACS THERAPEUTICS (SHANGHAI) CO., LTD., priority 2022, published 2025)
Read-outs that look alike come from different tables or passages of the source.

Columns and labels:
[1] = biological target: human Cereblon WT GST-tagged protein (Homo sapiens (Human), UniProt Q96SW2); assay: CRBN binding, HTRF (CEREBLON BINDING kit)
Procedure: The CEREBLON BINDING kits (specification: 10,000 tests; product number: Catalog #64BDCRBNPEH; CISBIO company) was used to determine the CRBN binding ability of the compounds to be tested through a HTRF method (homogeneous time-resolved fluorescence). The specific methods are as follows: • 1. […] Then, 2.5 μL of human Cereblon WT GST-tagged protein solution was added to each well. Finally, 5 μL of the thoroughly mixed Thalidomide-Re reagent and GST Eu antibody working solution were added to each of the aforementioned wells. […] The blank control wells were sequentially added with 2.5 μL of diluent #9 (1×) solution, 2.5 μL of PROTAC binding buffer, and 5 μL of thoroughly mixed Thalidomide-Re reagent and GST Eu antibody working solution. • 4.
The corresponding CRBN binding inhibition rate was calculated using the following method: […]
OD 620 nmcompound is the absorbance value of each well of the compounds of the present disclosure to be tested at an emission wavelength of 620 nm. […] OD 620 nmcontrol is the absorbance value of the blank control well at an emission wavelength of 620 nm. […] OD 620 nmStd0 is the absorbance value of the solvent control well at an emission wavelength of 620 nm.

[2] = test system: TMD8 cells; assay: Tumor cell proliferation inhibition, CCK-8 kit, 96 h; assay type: cell-based; conditions: Homo sapiens, read-out: IC50 for inhibiting the proliferation of tumor cells, TMD8 cell
Procedure: (§1) The tumor cells used herein were cultured in RPMI 1640 medium supplemented with 10% FBS, penicillin to a final concentration of 100 U/mL, and streptomycin to a final concentration of 100 μg/mL, at 37° C. in an incubator with 5% CO2. Prior to experimentation, all cells used were correctly identified by STR profiling, and tested negative for Mycoplasma through routine screenings.
(§2) After 24 h, 100 μL of the inoculated cells were treated with 0.5 μL of the compounds of the present disclosure (including the compounds in Table 1, and Examples compounds) in DMSO at 10 different successively decreasing concentrations (starting at a maximum concentration of 10 μM; 5-fold serial dilutions). […] The growth inhibition of the compounds of the present disclosure on the cells was plotted using Prism Graphpad software, and the IC50 values of the compounds of the present disclosure were calculated.

[3] = test system: Mino cells; assay: as above; assay type: cell-based; conditions: Homo sapiens
Procedure: as §1, §2

[4] = test system: Daudi cells; assay: as above; assay type: cell-based; conditions: Homo sapiens
Procedure: as §1, §2

[5] = test system: MM.1S cells; assay: as above; assay type: cell-based; conditions: Homo sapiens, MM1.S
Procedure: as §1, §2

[6] = biological target: IKZF3 protein (Homo sapiens (Human), UniProt Q96SW2+Q9UKT9); assay: Western blot, substrate protein degradation in hPBMC; assay type: cell-based; conditions: 24 h
Excerpt: (§3) The supernatant, containing the total cellular protein, was aspirated.

[7] = biological target: IKZF1 protein (Homo sapiens (Human), UniProt Q13422+Q96SW2); assay: as above; assay type: cell-based; conditions: 24 h
Excerpt: as §3

[8] = biological target: GSPT1 protein (Homo sapiens (Human), UniProt P15170+Q96SW2); conditions: hPBMC, 24 h, 50 nM
Excerpt: as §3

[9] = Mino cells, CCK-8, read-out: IC50 for inhibiting the proliferation of tumor cells, Mino cell
[10] = Daudi cells, CCK-8, read-out: IC50 for inhibiting the proliferation of tumor cells, Daudi cell
[11] = MM.1S cells, CCK-8, read-out: IC50 for inhibiting the proliferation of tumor cells, MM.1S cell

Chain of human Cereblon WT GST-tagged protein (Q96SW2 whole entry): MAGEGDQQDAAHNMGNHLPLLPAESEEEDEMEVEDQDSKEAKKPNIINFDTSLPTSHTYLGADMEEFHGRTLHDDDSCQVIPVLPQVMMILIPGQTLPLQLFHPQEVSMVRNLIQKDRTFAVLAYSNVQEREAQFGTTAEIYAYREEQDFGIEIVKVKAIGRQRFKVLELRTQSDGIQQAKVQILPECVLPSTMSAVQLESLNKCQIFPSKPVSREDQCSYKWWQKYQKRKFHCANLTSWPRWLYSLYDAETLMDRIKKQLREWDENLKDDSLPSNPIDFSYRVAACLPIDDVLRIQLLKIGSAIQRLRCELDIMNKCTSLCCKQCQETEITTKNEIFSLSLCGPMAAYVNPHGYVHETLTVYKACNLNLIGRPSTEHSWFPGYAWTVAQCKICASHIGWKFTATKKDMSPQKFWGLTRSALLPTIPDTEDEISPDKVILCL
Chain of IKZF1 protein (Q13422 whole entry): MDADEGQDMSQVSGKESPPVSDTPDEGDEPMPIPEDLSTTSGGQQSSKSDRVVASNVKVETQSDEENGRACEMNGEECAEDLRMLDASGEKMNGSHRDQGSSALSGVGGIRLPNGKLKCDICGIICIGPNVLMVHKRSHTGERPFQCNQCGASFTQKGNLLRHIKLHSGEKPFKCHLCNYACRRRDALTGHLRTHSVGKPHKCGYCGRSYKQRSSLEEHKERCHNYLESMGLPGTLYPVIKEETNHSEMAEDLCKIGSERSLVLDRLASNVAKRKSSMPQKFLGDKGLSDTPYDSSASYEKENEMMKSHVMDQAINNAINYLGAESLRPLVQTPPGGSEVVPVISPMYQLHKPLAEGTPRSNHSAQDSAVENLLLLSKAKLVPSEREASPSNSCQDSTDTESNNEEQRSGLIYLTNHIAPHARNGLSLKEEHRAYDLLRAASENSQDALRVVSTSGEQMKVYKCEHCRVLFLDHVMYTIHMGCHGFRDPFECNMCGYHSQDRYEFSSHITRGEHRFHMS
Chain of IKZF1 protein (Q96SW2 whole entry): as the sequence (Q96SW2 whole entry) above
Chain of IKZF1 protein (Q16531 whole entry partner): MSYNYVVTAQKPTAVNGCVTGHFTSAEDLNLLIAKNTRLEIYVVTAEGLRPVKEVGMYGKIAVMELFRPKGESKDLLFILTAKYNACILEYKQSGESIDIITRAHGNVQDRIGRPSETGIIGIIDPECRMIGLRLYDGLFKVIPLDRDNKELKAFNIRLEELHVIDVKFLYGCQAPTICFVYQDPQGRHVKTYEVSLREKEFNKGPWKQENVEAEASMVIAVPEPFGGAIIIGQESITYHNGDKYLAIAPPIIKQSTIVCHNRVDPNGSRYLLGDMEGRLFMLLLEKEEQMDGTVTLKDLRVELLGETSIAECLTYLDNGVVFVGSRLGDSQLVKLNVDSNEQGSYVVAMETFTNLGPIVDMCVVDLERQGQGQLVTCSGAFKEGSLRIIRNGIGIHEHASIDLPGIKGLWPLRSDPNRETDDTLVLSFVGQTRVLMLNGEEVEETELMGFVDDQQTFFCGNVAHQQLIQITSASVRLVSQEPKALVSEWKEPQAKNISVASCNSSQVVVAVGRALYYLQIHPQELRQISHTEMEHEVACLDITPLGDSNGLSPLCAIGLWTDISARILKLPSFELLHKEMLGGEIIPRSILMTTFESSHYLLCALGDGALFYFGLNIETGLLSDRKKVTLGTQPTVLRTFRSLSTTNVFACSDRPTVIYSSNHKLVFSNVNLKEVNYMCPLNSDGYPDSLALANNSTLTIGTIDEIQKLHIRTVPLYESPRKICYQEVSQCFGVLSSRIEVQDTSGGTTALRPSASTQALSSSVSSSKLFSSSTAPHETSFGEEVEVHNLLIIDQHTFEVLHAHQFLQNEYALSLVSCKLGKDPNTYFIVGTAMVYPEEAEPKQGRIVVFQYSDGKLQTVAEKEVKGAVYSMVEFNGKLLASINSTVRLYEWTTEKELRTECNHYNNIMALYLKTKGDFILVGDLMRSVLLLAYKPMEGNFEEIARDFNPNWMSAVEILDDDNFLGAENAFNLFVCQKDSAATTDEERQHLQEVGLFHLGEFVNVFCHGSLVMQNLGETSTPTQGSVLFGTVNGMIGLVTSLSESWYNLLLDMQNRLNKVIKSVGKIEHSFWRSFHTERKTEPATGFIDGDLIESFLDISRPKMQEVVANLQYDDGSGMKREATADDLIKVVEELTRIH
Chain of IKZF3 protein (Q9UKT9 whole entry): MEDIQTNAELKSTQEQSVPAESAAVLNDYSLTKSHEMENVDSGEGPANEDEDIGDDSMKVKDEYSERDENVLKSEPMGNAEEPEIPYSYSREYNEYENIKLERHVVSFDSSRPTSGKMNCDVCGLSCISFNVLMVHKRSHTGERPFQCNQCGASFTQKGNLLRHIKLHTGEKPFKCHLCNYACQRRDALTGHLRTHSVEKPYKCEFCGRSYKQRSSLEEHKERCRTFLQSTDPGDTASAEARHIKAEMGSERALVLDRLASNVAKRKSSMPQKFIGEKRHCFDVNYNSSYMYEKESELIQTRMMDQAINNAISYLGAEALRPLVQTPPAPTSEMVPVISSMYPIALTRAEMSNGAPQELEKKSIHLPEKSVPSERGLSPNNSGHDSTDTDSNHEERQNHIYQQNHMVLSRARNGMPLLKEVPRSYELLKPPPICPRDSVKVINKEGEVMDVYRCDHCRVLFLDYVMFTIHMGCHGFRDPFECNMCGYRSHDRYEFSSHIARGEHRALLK
Chain of IKZF3 protein (Q96SW2 whole entry): as the sequence (Q96SW2 whole entry) above
Chain of IKZF3 protein (Q16531 whole entry partner): as the sequence (Q16531 whole entry partner) above
Chain of GSPT1 protein (P15170 whole entry, looked up): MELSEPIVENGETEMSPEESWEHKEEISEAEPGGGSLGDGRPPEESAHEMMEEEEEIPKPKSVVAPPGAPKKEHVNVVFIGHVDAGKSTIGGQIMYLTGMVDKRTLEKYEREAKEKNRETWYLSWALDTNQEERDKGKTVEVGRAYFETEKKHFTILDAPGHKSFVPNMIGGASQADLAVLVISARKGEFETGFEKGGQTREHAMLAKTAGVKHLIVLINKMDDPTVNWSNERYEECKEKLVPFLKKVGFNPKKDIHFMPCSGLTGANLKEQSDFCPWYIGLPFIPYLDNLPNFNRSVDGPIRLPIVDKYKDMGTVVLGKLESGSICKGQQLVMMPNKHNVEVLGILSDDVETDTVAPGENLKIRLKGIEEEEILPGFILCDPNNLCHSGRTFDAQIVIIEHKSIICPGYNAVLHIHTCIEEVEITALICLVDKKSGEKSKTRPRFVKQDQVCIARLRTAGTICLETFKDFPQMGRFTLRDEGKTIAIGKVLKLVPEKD
Chain of GSPT1 protein (Q96SW2 whole entry, looked up): as the sequence (Q96SW2 whole entry) above
Chain of GSPT1 protein (Q16531 whole entry partner, looked up): as the sequence (Q16531 whole entry partner) above

| IC50 [1] | IC50 [3, 9] | IC50 [5, 11] | SMILES | further results |
| --- | --- | --- | --- | --- |
| < 0.6 µM |  |  | O=C1CCC(N2Cc3c(SCc4ccc(CN5CCC(F)(F)CC5)cc4)cc(F)cc3C2=O)C(=O)N1 (stereo not drawn) [GT-04024, 3-(4-((4-((4,4-difluoropiperidin-1-yl)methyl)benzyl)thio)-6-fluoro-1-oxoisoindolin-2-yl)piperidine-2,6-dione] | IC50 ([2]; TMD8 cells, 96 h, CCK-8): 0.005 to 0.01 µM |
| < 0.6 µM | < 0.005 µM |  | O=C1CCC(N2Cc3c(SCc4ccc(CN5CCCCC5)cc4)cc(F)cc3C2=O)C(=O)N1 (stereo not drawn) [GT-04117, 3-(6-fluoro-1-oxo-4-((4-(piperidin-1-ylmethyl)benzyl)thio)isoindolin-2-yl)piperidine-2,6-dione] | IC50 [4, 10]: 0.5 to 1 µM; IC50 ([2]; TMD8 cells, 96 h, CCK-8): 0.01 to 0.05 µM |
| < 0.6 µM |  |  | O=C1CCC(N2Cc3c(SCCCCNC45CC6CC(CC(C6)C4)C5)cc(F)cc3C2=O)C(=O)N1 (stereo not drawn) [GT-04243, 3-(4-((4-((adamantan-1-yl)amino)butyl)thio)-6-fluoro-1-oxoisoindolin-2-yl)piperidine-2,6-dione] |  |
| < 0.6 µM |  |  | O=C1CCC(N2Cc3c(SCCCCCCCNC45CC6CC(CC(C6)C4)C5)cc(F)cc3C2=O)C(=O)N1 (stereo not drawn) [GT-04333, 3-(4-((7-((adamantan-1-yl)amino)heptyl)thio)-6-fluoro-1-oxoisoindolin-2-yl)piperidine-2,6-dione] |  |
| < 0.6 µM |  |  | O=C1CCC(N2Cc3c(SCCCCCCCCN4CCOCC4)cc(F)cc3C2=O)C(=O)N1 (stereo not drawn) [GT-05341, 3-(6-fluoro-4-((8-morpholinooctyl)thio)-1-oxoisoindolin-2-yl)piperidine-2,6-dione] |  |
| < 0.6 µM |  |  | CCN(CC)CCCCCCCCSc1cc(F)cc2c1CN(C1CCC(=O)NC1=O)C2=O (stereo not drawn) [GT-05342, 3-(4-((8-(diethylamino)octyl)thio)-6-fluoro-1-oxoisoindolin-2-yl)piperidine-2,6-dione] |  |
| < 0.6 µM | 0.01 to 0.05 µM |  | O=C1CCC(N2Cc3c(SCCCCCCC(=O)N4CCCCC4)cc(F)cc3C2=O)C(=O)N1 (stereo not drawn) [GT-05343, 3-(6-fluoro-1-oxo-4-((7-oxo-7-(piperidin-1-yl)heptyl)thio)isoindolin-2-yl)piperidine-2,6-dione] |  |
| < 0.6 µM |  |  | O=C1CCC(N2Cc3c(SCCCCCCCN4CCCCC4)cc(F)cc3C2=O)C(=O)N1 (stereo not drawn) [GT-05344, 3-(6-fluoro-1-oxo-4-((7-(piperidin-1-yl)heptyl)thio)isoindolin-2-yl)piperidine-2,6-dione] |  |
| < 0.6 µM | 0.01 to 0.05 µM | 0.05 to 0.1 µM | O=C1CCC(N2Cc3c(SCCCCCCC(=O)N4CCC(F)(F)CC4)cc(F)cc3C2=O)C(=O)N1 (stereo not drawn) [GT-05407, 3-(4-((7-(4,4-difluoropiperidin-1-yl)-7-oxoheptyl)thio)-6-fluoro-1-oxoisoindolin-2-yl)piperidine-2,6-dione] |  |
| < 0.6 µM | 0.05 to 0.1 µM |  | O=C1CCC(N2Cc3c(SCCCCCCCN4CCC(F)(F)CC4)cc(F)cc3C2=O)C(=O)N1 (stereo not drawn) [GT-05408, 3-(4-((7-(4,4-difluoropiperidin-1-yl)heptyl)thio)-6-fluoro-1-oxoisoindolin-2-yl)piperidine-2,6-dione] |  |
| < 0.6 µM | < 0.005 µM |  | O=C1CCC(N2Cc3c(SCCCCCCCNC4CCCCC4)cc(F)cc3C2=O)C(=O)N1 (stereo not drawn) [GT-05409, 3-(4-((7-(cyclohexylamino)heptyl)thio)-6-fluoro-1-oxoisoindolin-2-yl)piperidine-2,6-dione] |  |
| < 0.6 µM | < 0.005 µM | < 0.005 µM | CN(CCCCCCCSc1cc(F)cc2c1CN(C1CCC(=O)NC1=O)C2=O)C12CC3CC(CC(C3)C1)C2 (stereo not drawn) [GT-05421, 3-(4-((7-((adamantan-1-yl)(methyl)amino)heptyl)thio)-6-fluoro-1-oxoisoindolin-2-yl)piperidine-2,6-dione] |  |
| < 0.6 µM | < 0.005 µM | < 0.005 µM | O=C1CCC(N2Cc3c(SCCCCCCCNC4CC5(CCC5)C4)cc(F)cc3C2=O)C(=O)N1 (stereo not drawn) [GT-05422, 3-(6-fluoro-1-oxo-4-((7-(spiro[3.3]heptan-2-ylamino)heptyl)thio)isoindolin-2-yl)piperidine-2,6-dione] |  |
| < 0.6 µM | < 0.005 µM | < 0.005 µM | O=C1CCC(N2Cc3c(SCc4ccc(CNC56CC7CC(CC(C7)C5)C6)cc4)cc(F)cc3C2=O)C(=O)N1 (stereo not drawn) [GT-05423, 3-(4-((4-(((adamantan-1-yl)amino)methyl)benzyl)thio)-6-fluoro-1-oxoisoindolin-2-yl)piperidine-2,6-dione] |  |
| < 0.6 µM | < 0.005 µM | 0.01 to 0.05 µM | CC1(C)[C@@H]2CC[C@@]1(C)[C@@H](NCc1ccc(CSc3cc(F)cc4c3CN(C3CCC(=O)NC3=O)C4=O)cc1)C2 (stereo partly drawn) [GT-05424, 3-(6-fluoro-1-oxo-4-((4-((((1R,2S,4R)-1,7,7-trimethylbicyclo[2.2.1]heptan-2-yl)amino)methyl)benzyl)thio)isoindolin-2-yl)piperidine-2,6-dione] | IC50 [4, 10]: 0.1 to 0.5 µM |
| < 0.6 µM | < 0.005 µM | 0.05 to 0.1 µM | CC1(C)[C@@H]2CC[C@@]1(C)[C@@H](NCCCCCCCSc1cc(F)cc3c1CN(C1CCC(=O)NC1=O)C3=O)C2 (stereo partly drawn) [GT-05425, 3-(6-fluoro-1-oxo-4-((7-(((1R,2S,4R)-1,7,7-trimethylbicyclo[2.2.1]heptan-2-yl)amino)heptyl)thio)isoindolin-2-yl)piperidine-2,6-dione] | IC50 [4, 10]: 0.5 to 1 µM |
| < 0.6 µM | < 0.005 µM | < 0.005 µM | O=C1CCC(N2Cc3c(SCc4ccc(CCNC56CC7CC(CC(C7)C5)C6)cc4)cc(F)cc3C2=O)C(=O)N1 (stereo not drawn) [GT-05431, 3-(4-((4-(2-((adamantan-1-yl)amino)ethyl)benzyl)thio)-6-fluoro-1-oxoisoindolin-2-yl)piperidine-2,6-dione] | IC50 [4, 10]: < 0.005 µM |
| < 0.6 µM | < 0.005 µM | 0.01 to 0.05 µM | O=C1CCC(N2Cc3c(SCc4ccc(CN5CCCCC5)c(F)c4)cc(F)cc3C2=O)C(=O)N1 (stereo not drawn) [GT-05443, 3-(6-fluoro-4-((3-fluoro-4-(piperidin-1-ylmethyl)benzyl)thio)-1-oxoisoindolin-2-yl)piperidine-2,6-dione] | IC50 [4, 10]: 0.1 to 0.5 µM; concentration at which IKZF3 protein is significantly degraded ([6]; Western blot): below 10 nM; concentration at which IKZF1 protein is significantly degraded ([7]; Western blot): below 0.1 nM |
| < 0.6 µM | < 0.005 µM | < 0.005 µM | O=C1CCC(N2Cc3c(SCc4ccc(CN5CCC(F)(F)CC5)c(F)c4)cc(F)cc3C2=O)C(=O)N1 (stereo not drawn) [GT-05444, 3-(4-((4-((4,4-difluoropiperidin-1-yl)methyl)-3-fluorobenzyl)thio)-6-fluoro-1-oxoisoindolin-2-yl)piperidine-2,6-dione] | IC50 [4, 10]: 0.01 to 0.05 µM |
| < 0.6 µM | 0.05 to 0.1 µM |  | O=C1CCC(N2Cc3c(CCCCCCCCNC45CC6CC(CC(C6)C4)C5)cc(F)cc3C2=O)C(=O)N1 (stereo not drawn) [GT-05617, 3-(4-(8-((adamantan-1-yl)amino)octyl)-6-fluoro-1-oxoisoindolin-2-yl)piperidine-2,6-dione] |  |
|  |  |  | Nc1cccc2c1C(=O)N(C1CCC(=O)NC1=O)C2=O (stereo not drawn) [pomalidomide, reference compound] | IC50 ([3]; MINO, read-out: IC50 for inhibiting the proliferation of tumor cells, Mino cell): 0.1 to 0.5 µM; IC50 ([4]; Daudi, read-out: IC50 for inhibiting the proliferation of tumor cells, Daudi cell): 1 to 5 µM; IC50 ([5]; read-out: IC50 for inhibiting the proliferation of tumor cells, MM.1S cell): 0.1 to 0.5 µM; IC50 ([2]; TMD8, 96 h): 0.1 to 0.5 µM; degradation of IKZF3 protein ([6]; 50 nM): does not degrade; degradation of IKZF1 protein ([7]; 50 nM): does not degrade; degradation of GSPT1 protein [8]: does not degrade |
